Results as given in patent US20060135768A1, “Synthesis for hydroxyalkylated heterocyclic bases” (RIBAPHARM INC., priority 2002, published 2006).
≈ marks a conversion by molar mass, not a printed value.

Test: Solubility of the heterocyclic base (adenine) in reaction solvents
Format: physicochemical

## Nc1ncnc2nc[nH]c12 [adenine]
Solvent DEF
  Solubility at 150° C.: 13.9 mg/mL (≈ 103 mM)
  Solubiity at RT: 1.36 mg/mL
Solvent DMA
  Solubility at 150° C.: 37.0 mg/mL (≈ 274 mM)
  Solubiity at RT: 4.00 mg/mL
Solvent DMF
  Solubility at 150° C.: 29.0 mg/mL (≈ 215 mM)
  Solubiity at RT: 2.90 mg/mL
